Assay results from US12617803B2, “Condensed isoxazoline derivatives and their use as herbicides” (BASF SE, priority 2020, dated 2026).

Columns and labels:
Format in all cases: in vivo
[1] = system: APESV (Apera spica-venti); assay: greenhouse pre-emergence herbicidal test; conditions: scale from 0 to 100, read-out: herbicidal activity against APESV; for pest or weed control at 250 g/ha: pre-emergence, 0,250 kg/ha; for pest or weed control at 125 g/ha: pre-emergence, 0.125 kg/ha
Source text: (§1) The seeds of the test plants were sown separately for each species. For the pre-emergence treatment, the active ingredients, which had been suspended or emulsified in water, were applied directly after sowing by means of finely distributing nozzles. The containers were irrigated gently to promote germination and growth and subsequently covered with transparent plastic hoods until the test plants had rooted. This cover caused uniform germination of the test plants, unless this had been impaired by the active ingredients. For the post-emergence treatment, the test plants were first grown to a height of 3 to 15 cm, depending on the plant habit, and only then treated with the active ingredients which had been suspended or emulsified in water. For this purpose, the test plants were either sown directly and grown in the same containers, or they were first grown separately as seedlings and transplanted into the test containers a few days prior to treatment. Depending on the species, the test plants were kept at 10-25° C. or 20-35° C., respectively. The test period extended over 2 to 4 weeks. During this time, the test plants were tended, and their response to the individual treatments was evaluated. Evaluation was carried out using a scale from 0 to 100. 100 means no emergence of the test plants, or complete destruction of at least the aerial moieties, and 0 means no damage, or normal course of growth. A good herbicidal activity is given at values of 70 to 90 and a very good herbicidal activity is given at values of 90 to 100. The test plants used in the greenhouse experiments were of the following species: [table]

AVEFA (Avena fatua) = assay: greenhouse post-emergence herbicidal test; conditions: scale from 0 to 100, read-out: herbicidal activity against AVEFA; for pest or weed control at 250 g/ha: 0.250 kg/ha; for pest or weed control at 125 g/ha: 0.125 kg/ha; for pest or weed control at 630 g/ha: 0.63 kg/ha
Source text: as §1

[2] = system: AMARE (Amaranthus retroflexus); assay: greenhouse pre-emergence herbicidal test; conditions: 0.125 kg/ha, scale from 0 to 100
Source text: as §1

[3] = system: AMARE (Amaranthus retroflexus); assay: greenhouse post-emergence herbicidal test; conditions: scale from 0 to 100
Source text: as §1

[4] = system: ALOMY (Alopercurus myosuroides); assay: greenhouse post-emergence herbicidal test; conditions: 0.125 kg/ha, scale from 0 to 100
Source text: as §1

[5] = system: ECHCG (Echinocloa crus-galli); assay: greenhouse pre-emergence herbicidal test; conditions: pre-emergence, 0,250 kg/ha, scale from 0 to 100
Source text: as §1

SETFA (Setaria faberi) = assay: greenhouse pre-emergence herbicidal test; conditions: scale from 0 to 100
Source text: as §1

[6] = system: ECHCG (Echinocloa crus-galli); assay: greenhouse post-emergence herbicidal test; conditions: 0.63 kg/ha, scale from 0 to 100
Source text: as §1

SETVI (Setaria viridis) = assay: greenhouse post-emergence herbicidal test; conditions: scale from 0 to 100
Source text: as §1

[7] = system: POLCO (Fallopia convolvulus); assay: greenhouse post-emergence herbicidal test; conditions: 0.63 kg/ha, scale from 0 to 100
Source text: as §1

[8] = system: ABUTH (Abutilon theophrasti); assay: greenhouse post-emergence herbicidal test; conditions: 0.500 kg/ha, scale from 0 to 100
Source text: as §1

For COC(=O)C1C=C[C@H](NC(=O)C23CC2C(c2cc(Cl)cc(Cl)c2)=NO3)C1 (some centres unmarked) [I17], which pest or weed control at 250 g/ha [1] is on record?
Its pest or weed control at 250 g/ha is 90 to 100%.

And the pest or weed control at 250 g/ha (AVEFA (Avena fatua))?
The pest or weed control at 250 g/ha was 90 to 100%.

Which “herbicidal activity against AMARE” value [2] does the source give for COC(=O)[C@@H]1C=C[C@H](NC(=O)C23CCCC2C(c2cc(Cl)cc(Cl)c2)=NO3)C1 (some centres unmarked) [I1] here?
The value was “very good (a very good herbicidal activity is given at values of 90 to 100)”.

What about the pest or weed control at 125 g/ha [1] of the same molecule?
The pest or weed control at 125 g/ha was 90 to 100%.

What about the pest or weed control at 125 g/ha (AVEFA (Avena fatua)) of the same molecule?
Its pest or weed control at 125 g/ha is 70 to 90%.

And the “herbicidal activity against AMARE” value ([3]; 0.125 kg/ha)?
The value was “very good (a very good herbicidal activity is given at values of 90 to 100)”.

And the “herbicidal activity against ALOMY” value [4]?
Its value is “good (A good herbicidal activity is given at values of 70 to 90)”.

How did the pest or weed control at 125 g/ha [1] turn out when COC(=O)CC[C@H](C)NC(=O)C12CCCC1C(c1cc(Cl)cc(Cl)c1)=NO2 (some centres unmarked) [I2] was run?
The pest or weed control at 125 g/ha was 70 to 90%.

What about the pest or weed control at 125 g/ha (AVEFA (Avena fatua)) of the same molecule?
Its pest or weed control at 125 g/ha is 90 to 100%.

What about the “herbicidal activity against AMARE” value ([3]; 0.125 kg/ha) of the same molecule?
Its value is “good (A good herbicidal activity is given at values of 70 to 90)”.

And the “herbicidal activity against ALOMY” value [4]?
Its value is “very good (a very good herbicidal activity is given at values of 90 to 100)”.

With COC(=O)[C@@H]1C=C[C@H](NC(=O)C23ON=C(c4cc(Cl)cc(Cl)c4)C2CCS3)C1 (stereo partly drawn) [I13, methyl (1S,4R)-4-[[3-(3,5-dichlorophenyl)-4,5-dihydro-3aH-thieno[3,2-d]isoxazole-6a-carbonyl]amino]cyclopent-2-ene-1-carboxylate] as the molecule, how does the “herbicidal activity against ECHCG” value [5] read?
Its value is “very good (a very good herbicidal activity is given at values of 90 to 100)”.

What about the pest or weed control at 250 g/ha [1] of the same molecule?
Its pest or weed control at 250 g/ha is 90 to 100%.

What about the pest or weed control at 250 g/ha (AVEFA (Avena fatua)) of the same molecule?
The pest or weed control at 250 g/ha was 90 to 100%.

With COC(=O)[C@@H]1C=C[C@H](NC(=O)C23C=CCC2C(c2cc(F)cc(F)c2)=NO3)C1 (stereo partly drawn) [I19, methyl (1S,4R)-4-[[3-(3,5-difluorophenyl)-3a,4-dihydrocyclopenta[d]isoxazole-6a-carbonyl]amino]cyclopent-2-ene-1-carboxylate] as the molecule, how does the pest or weed control at 250 g/ha [1] read?
The pest or weed control at 250 g/ha was 90 to 100%.

And the “herbicidal activity against SETFA” value (SETFA (Setaria faberi); pre-emergence, 0,250 kg/ha)?
The value was “very good (a very good herbicidal activity is given at values of 90 to 100)”.

And the pest or weed control at 250 g/ha (AVEFA (Avena fatua))?
The pest or weed control at 250 g/ha was 90 to 100%.

COC(=O)[C@H]1C[C@@H](NC(=O)C23CCC2C(c2cc(Cl)cc(Cl)c2)=NO3)CO1 (some centres unmarked) [I20] was tested. Which pest or weed control at 630 g/ha (AVEFA (Avena fatua)) did it give?
The pest or weed control at 630 g/ha was 90 to 100%.

What about the “herbicidal activity against ECHCG” value [6] of the same molecule?
The value was “good (A good herbicidal activity is given at values of 70 to 90)”.

And the “herbicidal activity against SETVI” value (SETVI (Setaria viridis); 0.63 kg/ha)?
The value was “very good (a very good herbicidal activity is given at values of 90 to 100)”.

With COC(=O)[C@@H]1C=C[C@H](NC(=O)C23ON=C(c4cc(Cl)cc(Cl)c4)C2CCC3(C)C)C1 (some centres unmarked) [I12] as the molecule, how does the “herbicidal activity against SEFTA” value (SETFA (Setaria faberi); pre-emergence, 0.125 kg/ha) read?
The value was “good (A good herbicidal activity is given at values of 70 to 90)”.

What does the source list for COC(=O)[C@H]1CC[C@H](NC(=O)C23CCC2C(c2cc(Cl)cc(Cl)c2)=NO3)C1 (some centres unmarked) [I21]?
pest or weed control at 630 g/ha (AVEFA (Avena fatua)): 70 to 90%; herbicidal activity against AMARE ([3]; 0.63 kg/ha): very good (a very good herbicidal activity is given at values of 90 to 100); herbicidal activity against POLCO [7]: good (A good herbicidal activity is given at values of 70 to 90)

What does the source list for COC(=O)CC[C@H](C)NC(=O)C12ON=C(c3cc(F)cc(F)c3)C1CCS2 (some centres unmarked) [I15]?
pest or weed control at 500 g/ha ([1]; pre-emergence, 0,500 kg/ha): 70 to 90%; pest or weed control at 500 g/ha (AVEFA (Avena fatua); 0.500 kg/ha): 90 to 100%; herbicidal activity against ABUTH [8]: good (A good herbicidal activity is given at values of 70 to 90); herbicidal activity against SETVI (SETVI (Setaria viridis); 0.500 kg/ha): very good (a very good herbicidal activity is given at values of 90 to 100)

What does the source list for COC(=O)CC[C@H](C)NC(=O)C12CC1C(c1cc(F)cc(F)c1)=NO2 (stereo partly drawn) [I16, methyl (4S)-4-[[4-(3,5-difluorophenyl)-2-oxa-3-azabicyclo[3.1.0]hex-3-ene-1-carbonyl]amino]pentanoate]?
pest or weed control at 250 g/ha [1]: 70 to 90%; pest or weed control at 250 g/ha (AVEFA (Avena fatua)): 90 to 100%

Which results are given for COC(=O)[C@@H]1C=C[C@H](NC(=O)C23NCCC2C(c2cc(Cl)cc(Cl)c2)=NO3)C1 (stereo partly drawn) [I10, methyl (1S,4R)-4-[3-(3,5-dichlorophenyl)-3aH,4H,5H,6H-pyrrolo[3,2-d][1,2]oxazole-6a-amido]cyclopent-2-ene-1-carboxylate]?
pest or weed control at 250 g/ha [1]: 70 to 90%; pest or weed control at 250 g/ha (AVEFA (Avena fatua)): 90 to 100%
